{"source": "paper PMC8556375", "about": "“Binding interaction of a ring-hydroxylating dioxygenase with fluoranthene in Pseudomonas aeruginosa DN1” (Scientific Reports, 2021)", "biological_target": "T1, RHD alpha subunit (RhdA, RS30940) (Pseudomonas aeruginosa, UniProt Q9HTF4)", "T1 construct": "gene gbcA; alpha subunit alone, 428 residues, His-tagged, pET-28a (NdeI/EcoRI), E. coli BL21 Star (DE3); no tag removal told", "T1 sequence (Q9HTF4 1-429)": "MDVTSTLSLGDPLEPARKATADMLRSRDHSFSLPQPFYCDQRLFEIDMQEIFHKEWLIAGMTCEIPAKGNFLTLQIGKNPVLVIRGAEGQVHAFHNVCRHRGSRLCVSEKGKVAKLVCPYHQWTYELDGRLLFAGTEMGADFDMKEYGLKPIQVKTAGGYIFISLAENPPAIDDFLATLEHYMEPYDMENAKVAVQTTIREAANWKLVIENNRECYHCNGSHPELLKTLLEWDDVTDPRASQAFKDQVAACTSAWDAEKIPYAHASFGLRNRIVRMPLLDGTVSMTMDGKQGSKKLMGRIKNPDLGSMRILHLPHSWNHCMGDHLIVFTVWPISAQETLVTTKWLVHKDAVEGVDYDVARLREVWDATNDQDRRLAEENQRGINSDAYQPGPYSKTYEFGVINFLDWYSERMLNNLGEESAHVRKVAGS", "assay": "intrinsic tryptophan fluorescence quenching (Stern-Volmer)", "type": "binding", "details": "phosphate buffer pH 7.5; 5.0 x 10^-6 mol/L protein; 298, 304 and 310 K; excitation 278 nm"}
{"smiles": "c1ccc2c(c1)-c1cccc3cccc-2c13", "note": "[fluoranthene]", "values": [{"measurement": "Stern-Volmer parameters", "result": "intrinsic fluorescence of RHD alpha subunit could be quenched by fluoranthene"}]}
